Publication PMC11091888, “Evaluation of Fusobacterium nucleatum Enoyl-ACP Reductase (FabK) as a Narrow-Spectrum Drug Target” (ACS Infectious Diseases, 2024)
Converted amounts (≈) assume the structure as drawn. Read-outs that look alike come from different tables or passages of the source.

How the values were obtained:
[1] = system: C. difficile infection (CDI); conditions: cited from earlier work
F. nucleatum 23726 [2] = assay: MIC against F. nucleatum 23726; format: cell-based, Fusobacterium nucleatum; conditions: three biological replicates; for MIC Fn 23726: F. nucleatum 23726 wild-type; for MIC: Fusobacterium nucleatum, 23726, F. nucleatum 23726 wild-type, read-out: MIC Fn 23726
Procedure: (§1) Compounds were twofold serially diluted (100–0.2 μg/mL) across a 96-well plate in 100 μL of media used for the specific organism (Table S4). For anaerobes, plates were incubated anaerobically at 37 °C for 1 h and then inoculated with approximately 10^5 to 10^6 CFU/well. Plates were incubated at 37 °C for up to 48 h, and MICs were read by visual inspection.

E. faecalis FA2–2 = assay: MIC against wild-type E. faecalis FA2-2 (FabI and FabK); format: cell-based, Enterococcus faecalis; conditions: E. faecalis FA2-2, possesses both FabI and FabK; for MIC: Enterococcus faecalis, read-out: MIC Ef wild-type
Procedure: as §1

E. faecalis FA2–2ΔfabI = assay: MIC against E. faecalis FA2-2 fabK+ (ΔfabI, possesses only FabK); format: cell-based, Enterococcus faecalis; conditions: for MIC: Enterococcus faecalis, read-out: MIC Ef fabK+, E. faecalis FA2-2 ΔfabI, possesses only FabK; for MIC Ef fabK+: E. faecalis FA2-2 ΔfabI, possesses only FabK
Procedure: as §1

E. faecalis FA2–2ΔfabK = assay: MIC against E. faecalis FA2-2 fabI+ (ΔfabK, possesses only FabI); format: cell-based, Enterococcus faecalis; conditions: E. faecalis FA2-2 ΔfabK, possesses only FabI
Procedure: as §1

FnFabK = FnFabK (Fusobacterium nucleatum subsp. nucleatum, UniProt Q8RGV3); assay: biochemical; conditions: for IC50: IC50 against FnFabK
FnFabK, sequence (Q8RGV3 entry or part of it): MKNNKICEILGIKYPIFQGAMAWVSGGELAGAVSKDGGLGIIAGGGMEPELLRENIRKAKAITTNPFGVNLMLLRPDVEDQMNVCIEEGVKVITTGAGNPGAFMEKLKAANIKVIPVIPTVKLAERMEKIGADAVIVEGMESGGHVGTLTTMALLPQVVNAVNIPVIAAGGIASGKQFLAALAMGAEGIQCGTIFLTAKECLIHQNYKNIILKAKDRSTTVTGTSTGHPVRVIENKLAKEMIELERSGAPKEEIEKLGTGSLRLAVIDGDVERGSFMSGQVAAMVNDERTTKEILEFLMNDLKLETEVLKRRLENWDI
Procedure: Incubation lasted for a total of 10 min before the addition of crotonyl-CoA substrate, and the reaction was initiated by the addition of NADH for a final assay volume of 100 μL. The oxidation of NADH to NAD+ was measured by tracking fluorescence (340 nm/460 nm) with a Biotek Synergy H1 microplate reader in 15 s intervals for a total of 10 min to monitor the rate of reaction. The reaction was conducted in Greiner Bio-One 384-well μClear Bottom Polystyrene Microplates. […] Measurements were conducted in triplicate, and IC50’s were calculated via GraphPad Prism 9.1.2 using four-parameter logistic (Hill) curve analysis using equation Y = bottom + (top – bottom)/[1 + 10 (Log IC50 – X) × Hill Slope], where X is the logarithm of the dose and Y is the response. The assay concentrations of the cofactor, NADH, and substrate, crotonyl-CoA, were also determined via GraphPad Prism 9.1.2 using the substrate inhibition model to determine Km(app).

CdFabK = system: CdFabK; parameters: method as in PMID 37224699; conditions: previously reported, cited from earlier work
[3] = Cytotoxicity against Vero cells (resazurin viability); format: cell-based; conditions: monkey, Vero epithelial cells, maximum tested concentration 100 μg/mL
Procedure: This was done as described[36] using colorectal carcinoma HCT116 and Vero epithelial cells cultured at 37 °C in 5% CO2 in Dulbecco’s modified Eagle’s medium (DMEM) with 4.5 g/L glucose and L-glutamine. The medium was supplemented with 10% v/v FetalGro (Rocky Mountain Biologicals). Approximately 25,000/well were aliquoted into black 96-well plates (Greiner Bio-One) and incubated overnight, before being resuspended in DMEM supplemented with 20% Gibco KnockOut Serum Replacement (Thermo Fisher Scientific). Compounds (100–1.6 μg/mL) were then added to the cells and incubated for 24 h at 37 °C and 5% CO2. Cell viability was analyzed using resazurin as described.[36]

F. nucleatum 23726 [4] = assay: Growth in FAS-II inhibitor with or without exogenous fatty acids; format: cell-based, Fusobacterium nucleatum; conditions: fatty acid mixture of Table S2
Procedure: To plates containing twofold serial dilutions of compounds, exponential phase cultures were added to a final OD600nm of 0.1. Plates containing F. nucleatum in Columbia broth were incubated at 37 °C inside of a Tecan Infinite 200 Pro, which was inside an anaerobic chamber; growth kinetics for Streptococcus spp. in brain heart infusion broth were done aerobically in the same Tecan instrument.

[5] = system: F. nucleatum 23726 overexpression strains; assay: MIC against F. nucleatum 23726 transformed with empty vector, fabK or fabX under ATc-inducible promoter; format: cell-based, Fusobacterium nucleatum; conditions: Fusobacterium nucleatum
Procedure: The transformation of F. nucleatum 23726 was performed via electroporation as previously described,[41] except that Columbia broth was used. (i) Antisense vector: F. nucleatum gene silencing vector, pHFK2, was developed by inserting the ATc inducible paired-termini antisense sequences from the clostridial vector pMSPT into pCWU6, a F. nucleatum vector.[56] pCWU6 was amplified by PCR (CloneAmp polymerase) and recombined with the BamHI and KpnI fragments of pMSPT containing the Tet promoter and paired-termini sequences.[26] Antisense nucleotides targeting either 50 bp upstream and downstream of the fabK start codon (FabKAS1) or 25 bp upstream and 75 bp downstream (FabKAS2) were cloned into SphI and XhoI restriction sites of pHFK2. (ii) Complementation vectors: these were generated by PCR amplifying the fabK promoter and gene and introducing KpnI and HindIII restriction sites at 5′ and 3′ ends, respectively. Purified PCR amplicons were inserted into the KpnI and HindIII sites of pCWU6. (iii) Overexpression vectors: the corresponding gene, fabK or fabX, was amplified via PCR, introducing HindIII or SacI restriction sites to the 5′ end, respectively. BamHI restriction sites were introduced to the 3′ end of both. Purified PCR amplicons were inserted into the respective restriction sites of pHFK2. (iv) Allelic exchange vector: vector, pCWU8-FabK, was generated using a previously described protocol,[41],[56] whereby 1-kb regions upstream and downstream of fabK were cloned into the suicide vector pCWU8 using a Gibson Assembly Cloning Kit (New England Biolabs). The recombinant vector was transformed into strain F. nucleatum 23726ΔgalK, and successful integrants were collected that were resistant to thiamphenicol (5 μg/mL). Since the suicide vector expresses GalK, which is toxic in the presence of 2-deoxy-D-galactose (2-DG), the compound 2-DG (0.25% w/v) was added to counter-select for mutants that underwent a second homologous recombination. Ten resulting colonies were then tested for deletion of fabK via PCR, using primers in Table S7. The experiment was independently performed twice for a total of 20 colonies screened for fabK deletion. All experiments were done anaerobically at 37 °C in tryptic soy broth supplemented with 1% w/v peptone and 0.25% w/v autoclaved L-cysteine hydrochloride (TSPC) or TSPC agar with thiamphenicol or 2-DG.
as §1

| SMILES | MIC Fn 23726 (F. nucleatum 23726 [2]) | MIC Ef fabI+ (E. faecalis FA2–2ΔfabK) | MIC Ef wild-type (E. faecalis FA2–2) | MIC Ef fabK+ (E. faecalis FA2–2ΔfabI) | also measured |
| --- | --- | --- | --- | --- | --- |
| O=C(NCc1nc(-c2ccc(Br)cc2)c[nH]1)Nc1ncc(Sc2ccccn2)s1 [Compound 296, 1-[4-(4-bromophenyl)-1H-imidazole-2-yl]methyl-3-[5-(pyridin-2-ylthio)thiazol-2-yl]urea] | 100 µg/mL (≈ 205 µM) | – | – | – | Efficacy in treating C. difficile infection (CDI) in mice [1]: efficacious; MIC (F. nucleatum 23726 [2]): > 100 µg/mL; MIC (E. faecalis FA2–2): 100 µg/mL (≈ 205 µM); MIC (E. faecalis FA2–2ΔfabI): < 0.1 µg/mL |
| O=C(NCc1nc(-c2ccc(Br)cc2)c[nH]1)Nc1nc2ccc(F)cc2s1 [Compound 670] | 100 µg/mL (≈ 224 µM) | 100 µg/mL (≈ 224 µM) | 100 µg/mL (≈ 224 µM) | <0.1 µg/mL | – |
| O=C(NCc1nc(-c2ccc(Br)cc2)c[nH]1)Nc1nc2ccc(Br)cc2s1 [Compound 671] | 25 µg/mL (≈ 49.3 µM) | 50 µg/mL (≈ 98.6 µM) | 50 µg/mL (≈ 98.6 µM) | <0.1 µg/mL | – |
| O=C(NCc1nc(-c2ccc(Br)cc2)c[nH]1)Nc1nc2c(F)cc(F)cc2s1 [Compound 674] | 100 µg/mL (≈ 215 µM) | 100 µg/mL (≈ 215 µM) | 100 µg/mL (≈ 215 µM) | <0.1 µg/mL | – |
| O=C(NCc1nc2ccccc2[nH]1)Nc1ncc(Sc2ccccn2)s1 [Compound 675] | 100 µg/mL (≈ 261 µM) | 100 µg/mL (≈ 261 µM) | 100 µg/mL (≈ 261 µM) | 0.8 µg/mL (≈ 2.09 µM) | – |
| O=C(NCc1nc(-c2ccccc2)n[nH]1)Nc1ncc(Sc2ccccn2)s1 [Compound 676] | 100 µg/mL (≈ 244 µM) | 100 µg/mL (≈ 244 µM) | 100 µg/mL (≈ 244 µM) | 0.2 µg/mL (≈ 0.488 µM) | – |
| O=C(NCc1nc(-c2ccc(Br)cc2)c[nH]1)Nc1ncc(Sc2ncccn2)s1 [Compound 679] | 6.3 µg/mL (≈ 12.9 µM) | 100 µg/mL (≈ 205 µM) | 100 µg/mL (≈ 205 µM) | <0.1 µg/mL | – |
| O=C(NCc1nc(-c2ccc(Br)cc2)c[nH]1)Nc1ncc(Sc2ccc3ccccc3n2)s1 [Compound 680] | 100 µg/mL (≈ 186 µM) | 100 µg/mL (≈ 186 µM) | 100 µg/mL (≈ 186 µM) | <0.1 µg/mL | – |
| O=C(NCc1nc(-c2ccc(Br)cc2)c[nH]1)Nc1ncc(Sc2ccc(Cl)cn2)s1 [Compound 682] | 3.1 µg/mL (≈ 5.94 µM) | 100 µg/mL (≈ 192 µM) | 100 µg/mL (≈ 192 µM) | <0.1 µg/mL | – |
| O=C(NCc1nc(-c2ccc(Br)cc2)c[nH]1)Nc1ncc(Sc2ncccc2C(F)(F)F)s1 [Compound 683] | 3.1 µg/mL (≈ 5.58 µM) | 100 µg/mL (≈ 180 µM) | 100 µg/mL (≈ 180 µM) | <0.1 µg/mL | – |
| O=C(NCc1nc(-c2ccc(Br)cc2)c[nH]1)Nc1ncc(Sc2ccc(C(F)(F)F)cn2)s1 [Compound 684] | 3.1 µg/mL (≈ 5.58 µM) | 100 µg/mL (≈ 180 µM) | 100 µg/mL (≈ 180 µM) | <0.1 µg/mL | – |
| O=C(NCc1nc(-c2ccc(Br)cc2)c[nH]1)Nc1nc2cc(Cl)ccc2s1 [Compound 689] | 6.3 µg/mL (≈ 13.6 µM) | 25 µg/mL (≈ 54 µM) | 25 µg/mL (≈ 54 µM) | <0.1 µg/mL | – |
| CCOc1ccc2sc(NC(=O)NCc3nc(-c4ccc(Br)cc4)c[nH]3)nc2c1 [Compound 690] | 25 µg/mL (≈ 52.9 µM) | 25 µg/mL (≈ 52.9 µM) | 25 µg/mL (≈ 52.9 µM) | <0.1 µg/mL | – |
| O=C(NCc1nc(-c2ccc(Br)cc2)c[nH]1)Nc1nc2ccccc2s1 [Compound 701] | – | – | – | – | MIC (F. nucleatum 23726 [2]): 1.6 µg/mL (≈ 3.74 µM); IC50 (FnFabK; equivalent concentration, conversion of the μM value): 10.7 µM; IC50 (FnFabK; purified FnFabK, three replicates): 10.6 µM; Hill coefficient (FnFabK inhibition) (FnFabK; four-parameter logistic fit): 1.06; IC50 against CdFabK, equivalent concentration (CdFabK): 0.8 µg/mL; IC50 (CdFabK; read-out: IC50 against CdFabK): 1880 nM; MIC (E. faecalis FA2–2): 100 µg/mL (≈ 233 µM); MIC (E. faecalis FA2–2ΔfabI): < 0.1 µg/mL |
| O=C(NCc1nc(-c2ccc(Br)cc2)c[nH]1)Nc1ncc(Sc2ccc(Br)cc2)s1 [Compound 702] | 100 µg/mL (≈ 177 µM) | 100 µg/mL (≈ 177 µM) | 100 µg/mL (≈ 177 µM) | <0.1 µg/mL | – |
| O=C(NCc1nc(-c2ccc(Br)cc2)c[nH]1)Nc1ncc(Sc2nc3ccccc3s2)s1 [Compound 703] | 100 µg/mL (≈ 184 µM) | 100 µg/mL (≈ 184 µM) | 100 µg/mL (≈ 184 µM) | <0.1 µg/mL | – |
| COc1cccc2c1C(=O)c1c(O)c3c(c(O)c1C2=O)C[C@@](O)(C(=O)CO)C[C@@H]3O[C@H]1C[C@H](N)[C@H](O)[C@H](C)O1 [doxorubicin, reference compound] | – | – | – | – | IC50 at 24 h [3]: 8.1 ± 1 µg/mL (≈ 14.9 µM) |
| C=C/C(C)=C/[C@@]1(C)SC(=O)C(C)=C1O [thiolactomycin, reference compound] | – | – | – | – | Effect of exogenous fatty acids on growth inhibition of F. nucleatum (F. nucleatum 23726 [4]): did not rescue; MIC ([5]; read-out: MIC, FabK overexpression, induced): 3.9 µg/mL; MIC ([5]; read-out: MIC, FabK overexpression, uninduced): 7.8 µg/mL; MIC ([5]; read-out: MIC, FabX overexpression, induced): 3.9 µg/mL; MIC ([5]; read-out: MIC, FabX overexpression, uninduced): 7.8 µg/mL; MIC ([5]; read-out: MIC, empty vector, induced): 7.8 µg/mL; MIC ([5]; read-out: MIC, empty vector, uninduced): 7.8 µg/mL |
